# Test results as given in patent publication US9073874B2, “Cyclic N,N′-diarylthioureas and N,N′-diarylureas-androgen receptor antagonists, anticancer agent, method for preparation and use thereof” (priority 2010, dated 2015).
# “Also recorded” adds a separate entry of the source.
# Key:
# [1] = Distribution in plasma, brain and prostate after single IV administration in rats; type: in vivo; conditions: for concentration at 30 min / concentration at 120 min: rat, plasma; for concentration at 30 min / concentration at 120 min / Brain / Plasma / Prostate: Mean ± SD, n = 3
# [2] = system: CYP 3A; test: CYP 3A induction assay; type: in vitro ADME
# [3] = Maximum tolerated dose, peroral once a day for 5 days in CD1 male mice; type: in vivo
# Description: The maximum tolerated doses (MTD) of novel antagonists (R)-1 and their analog Ia were determined in experiments on CD1 male mice at peroral administration once a day for 5 days in doses of 10, 30, and 100 mg/kg. The compound was dissolved in sterile water with addition of Tween 80. Sterile water with Tween 80 was given to control animals (Placebo group). Animals' body weight and mortality rate were estimated. Statistical comparison of groups was carried out according to a non-parametric ANOVA test using Statistica software.
# [4] = system: LnCAP-Z2 tumors; test: Prostate cancer xenograft model, SCID male mice bearing LnCAP-Z2 tumors; type: in vivo; conditions: analysis of individual tumors, 21 days oral
# Description: SCID male mice bearing LnCAP-Z2 tumors (mean volume˜160-190 mm^3) were treated daily by oral gavage with vehicle or drugs for 21 days. Individual tumor volume change by the end of the study. Percentage of change in individual tumor volumes as compared to the start of treatment.
# FIG. 6. […] SCID male mice bearing LnCAP-Z2 tumors (mean volume˜160-190 mm^3) treated daily by oral gavage with vehicle or drugs for 21 days. Individual tumor volume change by the end of the study. Percentage of change in individual tumor volumes compared to the start of treatment.
# FIG. 7. […] SCID male mice bearing LnCAP-Z2 tumors (mean volume˜160-190 mm^3) treated daily by oral gavage with vehicle or drugs for 21 days. (A)—Tumor weight by the end of the study. Mean±SEM are presented. […] (B)—PSA expression by the end of the study. Plasma samples were collected 24 hours after the last drug administration. Mean±SEM are presented.
# The antitumor efficacy of (R)-1 was tested in a xenograft model of prostate cancer (FIGS. 6 and 7). Male immunodeficient mice harboring LnCAP-Z2 tumors were treated orally for 21 days with either vehicle or (R)-1 at 20 and 50 mg/kg once daily and at 20 mg/kg twice daily. […] Twenty-four hours after last treatment, blood samples were collected from all animals and used for measuring PSA expression and drug concentration. In addition, the concentration of drugs and Ki67 expression were measured in tumor samples.
# [5] = target: T1, androgen receptors (Homo sapiens, UniProt P10275, T878A); test: cell-based; type: cell-based
# T1 construct: host or cells: LNCaP
# T1 sequence (P10275 1-920 T878A): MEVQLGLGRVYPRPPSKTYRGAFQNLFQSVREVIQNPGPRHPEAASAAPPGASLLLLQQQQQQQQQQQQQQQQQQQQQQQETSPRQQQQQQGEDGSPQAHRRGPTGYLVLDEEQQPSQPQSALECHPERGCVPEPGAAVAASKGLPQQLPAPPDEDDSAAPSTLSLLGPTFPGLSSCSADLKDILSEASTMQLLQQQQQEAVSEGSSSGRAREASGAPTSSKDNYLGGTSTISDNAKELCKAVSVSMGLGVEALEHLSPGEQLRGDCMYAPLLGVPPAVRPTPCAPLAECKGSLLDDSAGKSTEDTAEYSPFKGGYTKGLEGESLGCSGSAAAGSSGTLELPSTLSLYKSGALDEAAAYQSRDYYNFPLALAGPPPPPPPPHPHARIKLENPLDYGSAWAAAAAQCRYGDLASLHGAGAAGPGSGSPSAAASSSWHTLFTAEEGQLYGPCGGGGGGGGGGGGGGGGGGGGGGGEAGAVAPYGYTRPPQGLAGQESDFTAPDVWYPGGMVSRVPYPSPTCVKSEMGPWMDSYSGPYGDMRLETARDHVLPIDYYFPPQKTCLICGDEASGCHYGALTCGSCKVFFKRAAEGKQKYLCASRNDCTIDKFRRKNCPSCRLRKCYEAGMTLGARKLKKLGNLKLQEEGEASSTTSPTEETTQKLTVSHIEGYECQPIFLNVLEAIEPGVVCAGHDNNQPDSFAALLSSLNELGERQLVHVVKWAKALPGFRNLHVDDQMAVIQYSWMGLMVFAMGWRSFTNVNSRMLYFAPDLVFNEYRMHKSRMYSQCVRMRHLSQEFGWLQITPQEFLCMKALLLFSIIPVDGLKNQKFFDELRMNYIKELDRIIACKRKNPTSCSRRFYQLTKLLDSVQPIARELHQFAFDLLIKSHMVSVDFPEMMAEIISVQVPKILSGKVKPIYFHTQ
# Description: The expression of PSA was measured in the culture medium 24 hours thereafter (FIG. 1). […] The LnCAP cells were cultured for a further 5 days and the number of viable cells was then calculated.
# FIG. 1. Inhibition of DHT-stimulated PSA expression in LnCAP cells.
# These cells are sensitive towards 5-a-dihydrotestosterone (DHT) and in the presence thereof produce cancer markers (PSA). […] Before the experiment, the cells were washed and suspended in the same medium, in which, however, a serum treated with charcoal for removal of hormone traces was used instead of calf serum. The cells (10 000 in total) were embedded into the wells of 96-well plates at 100 μl per well and left for 4 days in an incubator at 37° C. […] The cells were incubated for a further 5 days under the same conditions. Then, samples of the supracellular medium were taken and analyzed for PSA. The test was carried out according to the protocol recommended by the manufacturer of the kit for PSA measurement (Alpha Diagnostic International, USA). After wetting the wells containing PSA antibodies attached to their bottoms, 25 μl of test compounds and 100 μl of PSA antibodies pre-conjugated to horseradish peroxidase were added successively to each well. Following a 30-minute incubation at room temperature, the content of each well was removed, the wells were washed several times, and 100 μl of a peroxidase chromogenic substrate was then added to each well. […] Based on data about the dependence of DHT-related reduction of PSA synthesis on the concentration of test compounds, dose-response curves were plotted to determine IC50 values. Said values were used for calculating apparent inhibition constants (Ki) for compounds of general formula I according to Cheng-Prusoff equation. [Cheng, Y., Prusoff, W. H. “Relationship between the inhibition constant (Ki) and the concentration of inhibitor which causes 50 percent inhibition (IC50) of an enzymatic reaction”. Biochem Pharmacol.
# [6] = CD1 male mice, peroral, 100 mg/kg
smiles,measurement,setting,value
CNC(=O)c1ccc(N2C(=S)N(c3cnc(C#N)c(C(F)(F)F)c3)C(=O)C23CCC3)cc1F [III],concentration at 30 min,"[1]; single IV 1 mg/kg, 30 min",251 ± 29 ng/mL
same,concentration at 120 min,"[1]; single IV 1 mg/kg, 120 min",153 ± 10 ng/mL
same,Brain/Plasma,"[1]; single IV 1 mg/kg, 30 min",0.96 ± 0.03
same,Prostate/Plasma,"[1]; single IV 1 mg/kg, 30 min",1.94 ± 0.24
same,Brain,"[1]; single IV 1 mg/kg, 30 min",241 ± 21 ng/g
same,Plasma,"[1]; single IV 1 mg/kg, 30 min",251 ± 29 ng/mL
same,Prostate,"[1]; single IV 1 mg/kg, 30 min",487 ± 73 ng/g
same,Brain/Plasma,"[1]; single IV 1 mg/kg, 120 min",1.15 ± 0.27
same,Prostate/Plasma,"[1]; single IV 1 mg/kg, 120 min",3.15 ± 0.94
same,Brain,"[1]; single IV 1 mg/kg, 120 min",176 ± 31 ng/g
same,Plasma,"[1]; single IV 1 mg/kg, 120 min",153 ± 10 ng/mL
same,Prostate,"[1]; single IV 1 mg/kg, 120 min",482 ± 120 ng/g
same,"Positive control, % (CYP 3A induction)",[2]; Concentration 1 μM,16.3 ± 2.5%
same,"Positive control, % (CYP 3A induction)",[2]; Concentration 10 μM,102.7 ± 13.0%
"CNC(=O)c1ccc(N2C(=S)N(c3ccc(C#N)c(C(F)(F)F)c3)C(=O)C2(C)C)cc1F [Ia, MDV3100]",MTD at 5 days,"[3]; CD1, mouse, in vivo, oral, male CD-1 mice, peroral once a day for 5 days",~30 mg/kg
same,"p, body weight versus Placebo group","[3]; CD1 male mice, 100 mg/kg, 5th day",0.002
same,body weight versus control animals (Placebo group),[3]; [6],statistically differed
same,mortality,[3]; [6],One animal died
same,mortality,"[3]; CD1 male mice, peroral, doses below 100 mg/kg (10 and 30 mg/kg)",did not lead to death; also recorded: did not cause death
same,maximum tolerated dose (MTD),"[3]; male CD-1 mice, peroral once a day for 5 days",about 30 mg/kg
same,concentration at 30 min,"[1]; single IV 2 mg/kg, 30 min",263 ± 19 ng/mL
same,concentration at 120 min,"[1]; single IV 2 mg/kg, 120 min",377 ± 153 ng/mL
same,Brain,"[1]; single IV 2 mg/kg, 30 min",164 ± 19 ng/g
same,Plasma,"[1]; single IV 2 mg/kg, 30 min",263 ± 19 ng/mL
same,Prostate,"[1]; single IV 2 mg/kg, 30 min",102 ± 4 ng/g
same,Brain,"[1]; single IV 2 mg/kg, 120 min",152 ± 31 ng/g
same,Plasma,"[1]; single IV 2 mg/kg, 120 min",377 ± 153 ng/mL
same,Prostate,"[1]; single IV 2 mg/kg, 120 min",124 ± 27 ng/g
same,"Positive control, % (CYP 3A induction)",[2]; Concentration 1 μM,10.0 ± 2.0%
same,"Positive control, % (CYP 3A induction)",[2]; Concentration 10 μM,73.3 ± 6.8%
same,effect on individual tumors (in words),[4],stimulate tumor regression
"CNC(=O)c1ccc(N2C(=S)N(c3ccc(C#N)c(C(F)(F)F)c3)C(=O)C23CCOC3)cc1F (racemic) [compound 1, 4-[3-(4-Cyano-3-trifluoromethyl-phenyl)-4-oxo-2-thioxo-7-oxa-1,3-diaza-spiro[4.4]non-1-yl]-2-fluoro-N-methyl-benzamide]",AR antagonistic activity (in words),[5],comparable with that of Ia
CNC(=O)c1ccc(N2C(=S)N(c3ccc(C#N)c(C(F)(F)F)c3)C(=O)[C@@]23CCOC3)cc1F [(S)-1],Ki,[5],215 nM
